In US20220117266A1, “NICKEL CHELATION THERAPY” (priority 2019, published 2022):

Columns and labels:
MDR S. Typhimurium = test: Galleria mellonella infection model; type: in vivo; conditions: 5 μl of 250 mM DMG (approx. 0.38 mg) injected five to ten minutes prior to bacterial challenge
Experimental: (§1) Attempts to establish a reliable K. pneumoniae infection model in mice failed, so an alternate animal model was chosen.
(§2) Galleria mellonella (wax moth) experiments. Wax moth larvae were obtained from local pet stores, from two different suppliers: the bug company (Ham Lake, Minn.; www.ebugco.com) and Timberline (Marion, Ill.; www.timberlinefresh.com). Larvae were stored in wood shavings at 4° C. in the dark and used within two weeks after purchase. Only larvae weighing 300±50 mg were selected for the experiments. Groups of ten larvae were used for each experiment. The site of injection (last right or left proleg) was disinfected with ethanol 70% (vol/vol) before and after each injection. A 10 μL-Hamilton syringe fitted with a […] needle (Becton Dickinson, Franklin Lakes, N.J.) was used to inject 5 μL. After injection, larvae were kept in 9.2-cm Petri dishes at 37° C. in the dark with no food. Larvae were monitored daily for […] and mortality (as defined by change of pigmentation and absence of response following physical stimulation) was recorded. […] Bacterial suspensions were prepared as follows: cells were grown overnight in 5 mL of Mueller Hinton broth, harvested, washed once, and resuspended in sterile 0.8% NaCl to a final OD600 of 0.1 (approximately 10^8 CFU/mL, as determined by CFU counts on serially diluted samples).

MDR K. pneumoniae = test: Galleria mellonella infection model; type: in vivo; conditions: 5 μl of 250 mM DMG (approx. 0.38 mg) injected five to ten minutes prior to bacterial challenge
Experimental: as §1, §2

[1] = tested on: C. jejuni (strain 81-176, ATCC BAA-2151); test: Growth inhibition, solid plates (CFU); type: cell-based, Campylobacter jejuni
[2] = tested on: Helicobacter pylori 43504; test: Antibiofilm assay on established biofilm; type: cell-based; conditions: DMG added for additional 24 hours
Experimental: Antibiofilm assay. H. pylori culture at OD600=0.15 was added to a non-tissue culture treated polystyrene 96 well plate (Falcon) and incubated at 37° C. micro-aerobically without shaking for 48 hours. After the initial incubation, the supernatant was removed from the wells and BHI+0.4% β-cyclodextran was added back to the wells with or without Na2DMG at various concentrations. The plate was then incubated an additional 24 hours. Then, the crystal violet biofilm assay was performed as above.

[3] = tested on: MDR K. pneumoniae (ATCC BAA2472); test: DMG growth inhibition in liquid culture (CFU/mL); type: cell-based, Klebsiella pneumoniae
Experimental: Growth conditions. All strains were routinely grown on LB agar plates or in LB broth. For DMG-growth inhibition study, S. Typhimurium strains ATCC 14028 and ATCC 700408 were grown in M9 minimal medium (M9 minimal salts, 0.4% glucose, 2 mM MgSO4, 0.1 mM CaCl2), and 1 μg/mL thiamine, pH 7.2). K. pneumoniae was grown in “W-U” medium, modified from Bender et al. 1977 129:1001-1009, containing 60 mM K2HPO4, 33 mM KH2PO4, 0.4 mM MgSO4, 0.4% Glucose, and 5 mM urea (instead of KNO3), pH 7.4. Briefly, overnight cultures of S. Typhimurium and K. pneumoniae were harvested, spun at 14,000 rpm for five minutes, washed once with either M9 (S. Typhimurium) or W-U (K. pneumoniae) and resuspended in either M9 (S. Typhimurium) or W-U (K. pneumoniae). […] Cells were incubated for 24 hours at 37° C. with shaking at 250 rpm, then serially diluted in PBS and 5 μL of each dilution was spotted in triplicate on LB plate. Colony forming units (CFU) were counted after 16 hours at 37° C. Each growth experiment was done at least three times.

Aβ40 peptide = Aβ40 peptide (Homo sapiens, UniProt P05067); test: Isothermal titration calorimetry; type: binding; set-up: purchased rPeptides, Watkinsville, Ga., USA kit #A-1180-1; host or cells: E. coli; conditions: 1 mM DMG injected instead of nickel; data not shown
Sequence of Aβ40 peptide (P05067 672-711): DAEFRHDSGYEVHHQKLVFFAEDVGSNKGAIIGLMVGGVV
Description: Nickel binding to human recombinant Aβ40 peptide is confirmed by isothermal titration calorimetry. Isothermal titration calorimetry (ITC) has been already used to analyze copper or zinc binding to various Aβ peptides, including Ab40 (Talmard et al. Biochemistry 46, 13658-13666 (2007); Sacco et al. JBIC Journal of Biological Inorganic Chemistry 17, 531-541 (2012); Hatcher et al. The journal of physical chemistry B 112, 8160-8164 (2008)). In the current study, we used ITC to determine whether nickel can bind the Aβ40 peptide. The peptide (same used in ThT-based aggregation assays) was present in the sample cell at a concentration of 20 μM. Twenty injections of NiSO4 (1 mM solution, 5 μM increments in sample cell) were performed every 5 min under constant stirring (350 rpm) at 25° C., and the heat release was measured (FIG. 9). The heat release profile indicates Ni binding to the peptide (FIG. 9, top Panel).
Isothermal Titration Calorimetry. […] Briefly, 1 mg of lyophilized Aβ40 peptide (#A-1157-2, rPeptides) was resuspended with 1% NH4OH to a concentration of 250 μM, sonicated for 15-20 sec, before being diluted to a final concentration of 20 μM Aβ40 using ddH2O and TBS 10×, pH 7.4 (working buffer: NH4OH 0.2%, TBS 1×, pH 7.4 (“NTBS”)). […] All samples were degassed for 15 min at 25° C. before use. Titration was initiated using a program for 20 injections (2.38 μL each, every 5 min) with continuous stirring (350 rpm) at constant temperature (25° C.). ITC data were analyzed using NanoAnalyze 1.2 software (TA Instruments). Data obtained with the control experiment (Aβ40 peptide in sample cell, buffer in syringe) were subtracted from each experiment to account for any injection-related heat change.

`CC(=NO)C(C)=NO` [DMG, dimethylglyoxime] was tested, and the “survival rate of larvae” value (MDR S. Typhimurium) was 60%, the “survival rate of larvae” value (MDR K. pneumoniae) was 40% and the “effect on growth (CFUs)” value ([1]; BHI plates, 5 mM DMG + CuSO4 1 μM to 500 μM, no detectable growth (detection limit: 200 CFUs)) was “bactericidal”. The “effect on growth (CFUs, colony size)” value ([1]; BHI plates, 5 mM DMG, 24 hours) was “bacteriostatic”, the effect on growth ([1]; DMG (2 mM)/Cu (0.5 mM) combination) was “bactericidal” and the “effect on established (48 hours of growth) biofilm” value [2] was “able to counteract”. The “effect on bacterial growth” value ([3]; DMG at 2.5 mM, 5 mM, or 7.5 mM) was “no measurable effect”, the inhibition at 10000 µM ([3]; Klebsiella pneumoniae, ATCCBAA2472, 24 h) was over 100% and the “binding to Aβ40 peptide (ITC)” value (Aβ40 peptide) was “cannot bind to the peptide”.
